Like-named read-outs stand apart in the source and are kept apart here.
Key:
H1975 (EGFR L858R/T790M) = experiment: Proliferation (CellTiter-Glo), H1975; assay type: cell-based, human; settings: H1975, EGFR L858R/T790M, 72 hours, read-out: GI50
Protocol: (§2) The human cancer cell lines A549, A431, H3255, H1975, PC-9, HCC827, H23, H460, A549, H358 and H2122 cells were purchased from the American Type Culture Collection (ATCC) (Manassas, VA, USA). […] A549 and A431 were cultured in DMEM media (Corning, USA) with 10% FBS and supplemented with 2% L-glutamine and 1% pen/strep. H3255 was cultured in BEGM media (LONZA, USA) with 10% FBS and supplemented with 2% L-glutamine and 1% pen/strep.
(§3) Cells were grown in 96-well culture plates (2500–3000/well). For adherent cell lines, compounds of various concentrations were added into the plates after cells were cultured for 12 hours. Cell proliferation was determined after treatment with compounds for 72 hours. Cell viability was measured using the CellTiter–Glo assay (Promega, USA), according to the manufacturer's instructions, and luminescence was measured in a multi-label reader (Envision, PerkinElmer, USA). Data were normalized to control groups (DMSO) and represented by the mean of three independent measurements with standard error <20%. GI50 values were calculated using Prism 5.0 (GraphPad Software, San Diego, CA).

H1975 cells [1] = settings: DMSO = 100
Protocol: as §3

H1975 cells [2] = experiment: cells; settings: Homo sapiens, NCI-H1975, read-out: Relative activity (%)
Protocol: as §3

H3255 (EGFR L858R) = experiment: Proliferation (CellTiter-Glo), H3255; assay type: cell-based, human; settings: H3255, EGFR L858R, 72 hours, read-out: GI50
Protocol: as §2, §3

PC-9 cells = experiment: Cell cycle analysis (FACS), PC-9; assay type: cell-based, human; settings: PC-9, 24h
Protocol: (§4) The cells were fixed in 70% cold ethanol and incubated at −20°C overnight then stained with PI/RNase staining buffer (BD Pharmingen). Flow cytometry was performed using a FACS Calibur (BD), and results were analyzed by ModFit software.

H1975 xenograft = H1975 xenograft mouse model; assay type: in vivo, Nude (Nu/Nu) mice
Protocol: (§1) Tumor diameter was measured 3 times weekly. Tumor volumes (V) were calculated by the equation (V = length × width × width/2). ALL experiments and procedures followed the guidelines of the Institutional Animal Care and Use Committees of National Institue of Biological Sciences, Beijing.

PI3K kinase = experiment: PI3K kinases ADP-Glo assay; assay type: biochemical; settings: Fig. S8
HCC827 cells = experiment: Cell cycle analysis (FACS), HCC827; assay type: cell-based, human; settings: HCC827, 24 h
Protocol: as §4

H460 (EGFR wt) = experiment: Proliferation (CellTiter-Glo), H460; assay type: cell-based, human; settings: H460, EGFR wt, 72 hours, read-out: GI50
Protocol: as §2, §3

H460 cells = experiment: Cell cycle analysis (FACS), H460; assay type: cell-based, human; settings: H460, 48h
Protocol: as §4

H358 (EGFR wt) = experiment: Proliferation (CellTiter-Glo), H358; assay type: cell-based, human; settings: H358, EGFR wt, 72 hours, read-out: GI50
Protocol: as §2, §3

H3255 cells = experiment: Cell cycle analysis (FACS), H3255; assay type: cell-based, human; settings: H3255, 24h
Protocol: as §4

HCC827 (EGFR Del19) = experiment: Proliferation (CellTiter-Glo), HCC827; assay type: cell-based, human; settings: HCC827, EGFR Del19, 72 hours, read-out: GI50
Protocol: as §2, §3

[3] = system: EGFR Y1068 in PC-9, HCC827, and H3255; experiment: EGFR Y1068 auto-phosphorylation in EGFR primary mutant cell lines; assay type: cell-based, human; settings: range over PC-9, HCC827, and H3255
Source text: Antibodies were used at 1:1000.
(§5) Cells were then washed with PBS and lysed in cell lysis buffer.

A549 (EGFR wt) = experiment: Proliferation (CellTiter-Glo), A549; assay type: cell-based, human; settings: A549, EGFR wt, 72 hours, read-out: GI50
Protocol: as §2, §3

H23 (EGFR wt) = experiment: Proliferation (CellTiter-Glo), H23; assay type: cell-based, human; settings: H23, EGFR wt, 72 hours, read-out: GI50
Protocol: as §2, §3

[4] = system: Akt Thr308 and Ser473 phosphorylation in H1975; experiment: Signaling pathway immunoblotting, H1975; assay type: cell-based, human; settings: H1975, 4 hours
Source text: Antibodies were used at 1:1000.
as §5

PC-9 xenograft = PC-9 xenograft mouse model; assay type: in vivo, Nude (Nu/Nu) mice
Protocol: as §1

A431 (EGFR wt) = experiment: Proliferation (CellTiter-Glo), A431; assay type: cell-based, human; settings: A431, EGFR wt, 72 hours, read-out: GI50
Protocol: as §2, §3

H2122 (EGFR wt) = experiment: Proliferation (CellTiter-Glo), H2122; assay type: cell-based, human; settings: H2122, EGFR wt, 72 hours, read-out: GI50
Protocol: as §2, §3

PC-9 (EGFR Del19) = experiment: Proliferation (CellTiter-Glo), PC-9; assay type: cell-based, human; settings: PC-9, EGFR Del19, 72 hours, read-out: GI50
Protocol: as §2, §3

H1975 cells [5] = experiment: Cell cycle analysis (FACS), H1975; assay type: cell-based, human
Protocol: as §4

Question: How did the GI50 (H1975 (EGFR L858R/T790M); Homo sapiens, NCI-H1975) turn out when `CC(=O)Nc1cccc(-n2c(=O)n(C3CC3)c(=O)c3c(Nc4ccc(I)cc4F)n(C)c(=O)c(C)c32)c1` [Trametinib] was run?
Answer: ~1.1 µM

Question: And the “H1975 cell lines growth” value (H1975 cells [1]; single agent 0.014 μM)?
Answer: 77.33

Question: And the “H1975 cell lines growth” value (H1975 cells [1]; single agent 0.04 μM)?
Answer: 79.50

Question: And the “H1975 cell lines growth” value (H1975 cells [1]; single agent 0.37 μM)?
Answer: 80.79

Question: And the “H1975 cell lines growth” value (H1975 cells [1]; single agent 1.1 μM)?
Answer: 77.20

Question: And the “H1975 cell lines growth” value (H1975 cells [1]; single agent 10 μM)?
Answer: 20.59

Question: What about the activity at 1.1 µM (H1975 cells [2]) of the same compound?
Answer: 52.2%

Question: How did the GI50 (H3255 (EGFR L858R); Homo sapiens, NCI-H3255) turn out when `C=CC(=O)N1CCC[C@@H](n2nc(-c3ccc(Oc4ccccc4)cc3)c3c(N)ncnc32)C1` [ibrutinib, Ibrutinib] was run?
Answer: 0.11 µM

Question: And the “%G0-G1” value (PC-9 cells; 0.3 μM)?
Answer: 81.91%

Question: What about the “%G2-M” value (PC-9 cells; 0.3 μM) of the same compound?
Answer: 10.77%

Question: And the “%G0-G1” value (PC-9 cells; 3 μM)?
Answer: 84.9%

Question: What about the “%G2-M” value (PC-9 cells; 3 μM) of the same compound?
Answer: 8.54%

Question: What about the “anti-tumor activity (tumor progression)” value (H1975 xenograft; 50 mg/kg BID oral gavage, 23-day) of the same compound?
Answer: slowed down tumor progression

Question: And the “anti-tumor activity, higher dosage versus 50 mg/kg BID” value (H1975 xenograft; 100 mg/Kg BID)?
Answer: did not improve efficacy

Question: What about the “enzymatic activity against PI3K kinase” value (PI3K kinase) of the same compound?
Answer: did not have apparent enzymatic activity

Question: And the “%G0-G1” value (HCC827 cells; 0.3 μM)?
Answer: 78.26%

Question: What about the “%G2-M” value (HCC827 cells; 0.3 μM) of the same compound?
Answer: 6.86%

Question: What about the “%G0-G1” value (HCC827 cells; 3 μM) of the same compound?
Answer: 80.37%

Question: What about the “%G2-M” value (HCC827 cells; 3 μM) of the same compound?
Answer: 5.91%

Question: And the GI50 (H460 (EGFR wt); Homo sapiens, NCI-H460)?
Answer: > 10 µM

Question: What about the “%G0-G1” value (H460 cells; 0.3 μM) of the same compound?
Answer: 69.88%

Question: And the “%G2-M” value (H460 cells; 0.3 μM)?
Answer: 5.02%

Question: What about the “%G0-G1” value (H460 cells; 3 μM) of the same compound?
Answer: 70.49%

Question: And the “%G2-M” value (H460 cells; 3 μM)?
Answer: 5.09%

Question: What about the GI50 (H358 (EGFR wt); Homo sapiens, NCI-H358) of the same compound?
Answer: > 10 µM

Question: And the GI50 (H1975 (EGFR L858R/T790M); Homo sapiens, NCI-H1975)?
Answer: 1.2 µM

Question: What about the “%G0-G1” value (H3255 cells; 0.3 μM) of the same compound?
Answer: 82.82%

Question: And the “%G2-M” value (H3255 cells; 0.3 μM)?
Answer: 9.73%

Question: And the “%G0-G1” value (H3255 cells; 3 μM)?
Answer: 89.05%

Question: And the “%G2-M” value (H3255 cells; 3 μM)?
Answer: 5.24%

Question: And the “H1975 cell lines growth” value (H1975 cells [1]; single agent 0.37 μM)?
Answer: 43.77

Question: What about the “H1975 cell lines growth” value (H1975 cells [1]; single agent 1.1 μM) of the same compound?
Answer: 34.56

Question: And the GI50 (HCC827 (EGFR Del19); Homo sapiens)?
Answer: 0.063 µM

Question: And the EC50 [3]?
Answer: 0.023 to 0.058 µM

Question: What about the GI50 (A549 (EGFR wt); Homo sapiens) of the same compound?
Answer: > 10 µM

Question: What about the GI50 (H23 (EGFR wt); Homo sapiens) of the same compound?
Answer: > 10 µM

Question: And the “phosphorylation of Akt Thr308 and Ser473” value [4]?
Answer: significantly affected the phosphorylation of Akt Thr308 and Ser473

Question: What about the “anti-tumor activity (tumor progression)” value (PC-9 xenograft; PC-9 xenograft, 25, 50, 100 mg/Kg BID oral gavage, 22 days) of the same compound?
Answer: tumor progression slow down efficacy

Question: And the GI50 (A431 (EGFR wt); Homo sapiens, A-431)?
Answer: > 10 µM

Question: What about the GI50 (H2122 (EGFR wt); Homo sapiens, NCI-H2122) of the same compound?
Answer: > 10 µM

Question: What about the activity at 1.1 µM (H1975 cells [2]) of the same compound?
Answer: 52.3%

Question: And the GI50 (PC-9 (EGFR Del19); Homo sapiens)?
Answer: 0.05 µM

Question: What about the “%G0-G1” value (H1975 cells [5]; H1975, 12h, 0.3 μM) of the same compound?
Answer: 69.44%

Question: What about the “%G2-M” value (H1975 cells [5]; H1975, 12h, 0.3 μM) of the same compound?
Answer: 10.92%

Question: What about the “%G0-G1” value (H1975 cells [5]; H1975, 12h, 3 μM) of the same compound?
Answer: 74.28%

Question: And the “%G0-G1” value (H1975 cells [5]; H1975, 24h, 0.3 μM)?
Answer: 81.96%

Question: And the “%G2-M” value (H1975 cells [5]; H1975, 24h, 0.3 μM)?
Answer: 6.76%

Question: And the “%G0-G1” value (H1975 cells [5]; H1975, 24h, 3 μM)?
Answer: 86.20%

Question: What about the “%G2-M” value (H1975 cells [5]; H1975, 24h, 3 μM) of the same compound?
Answer: 4.83%

Question: And the “%G0-G1” value (H1975 cells [5]; H1975, 48h, 0.3 μM)?
Answer: 92.06%

Question: What about the “%G2-M” value (H1975 cells [5]; H1975, 48h, 0.3 μM) of the same compound?
Answer: 2.43%

Question: What about the “%G0-G1” value (H1975 cells [5]; H1975, 48h, 3 μM) of the same compound?
Answer: 93.79%

Question: What about the “%G2-M” value (H1975 cells [5]; H1975, 48h, 3 μM) of the same compound?
Answer: 1.31%

Question: `COc1cc2ncnc(Nc3ccc(F)c(Cl)c3)c2cc1OCCCN1CCOCC1` [Gefitinib] was tested. Which “anti-tumor activity (tumor growth)” value (H1975 xenograft; 25 mg/kg/day QD oral gavage) did it give?
Answer: completely lost the anti-tumor efficacy

Question: And the “anti-tumor activity (tumor growth)” value (PC-9 xenograft; PC-9 xenograft, 25 mg/kg/day QD oral gavage)?
Answer: almost completely suppressed the tumor growth

Question: With `CCC(=O)N1CCC[C@@H](n2nc(-c3ccc(Oc4ccccc4)cc3)c3c(N)ncnc32)C1` [PCI-R] as the compound, how does the GI50 (H3255 (EGFR L858R)) read?
Answer: > 10 µM

Question: And the GI50 (H460 (EGFR wt))?
Answer: > 10 µM

Question: What about the GI50 (H358 (EGFR wt)) of the same compound?
Answer: > 10 µM

Question: And the GI50 (H1975 (EGFR L858R/T790M))?
Answer: > 10 µM

Question: And the GI50 (HCC827 (EGFR Del19))?
Answer: > 10 µM

Question: What about the GI50 (A549 (EGFR wt)) of the same compound?
Answer: > 10 µM

Question: And the GI50 (H23 (EGFR wt))?
Answer: > 10 µM

Question: And the GI50 (A431 (EGFR wt))?
Answer: > 10 µM

Question: What about the GI50 (H2122 (EGFR wt)) of the same compound?
Answer: > 10 µM

Question: And the GI50 (PC-9 (EGFR Del19))?
Answer: > 10 µM

— paper PMC4741607 (Oncotarget, 2015)
